The numbers were not newly measured in patent US20040105900A1, “Extracts derived from Pueraria mirifica, Butea superba and/or Mucuna collettii and extraction thereof” (CHEIL JEDANG CORPORATION, priority 1999, published 2004), which cites them from elsewhere.

This data set concerns skin of menopausal females. Particulars: after 6 months of application to the skin.

Regarding estrogen, the “improvement in the depth of wrinkles” value is recorded as 60%.
